Counter-ions that a name gives are not always drawn. Like-named read-outs stand apart in the source and are kept apart here.
Legend:
[1] = target: T1, human H1 receptor (Homo sapiens, UniProt P35367); test: Histamine H1 functional antagonist assay (FLIPR): determination of antagonist pA2; assay type: cell-based
T1 construct: expressed in transfected cells
Experimental: (§1) The human H1 receptor is cloned using known procedures described in the literature [Biochem. Biophys. Res. Commun., 201(2):894 (1994)]. Chinese hamster ovary (CHO) cells stably expressing the human H1 receptor are generated according to known procedures described in the literature [Br. J. Pharmacol., 117(6):1071 (1996)].
(§2) Histamine H1 functional antagonist assay: Determination of antagonist pA2 and duration
The histamine H1 receptor expressing CHO cells are seeded into non-coated black-walled clear bottom 96-well tissue culture plates as described above. Following overnight culture, growth medium is removed from each well, washed with 200 μl phosphate buffered saline (PBS) and is replaced with 50 μl loading dye (250 μM Brilliant Black, 1 μM Fluo-4 diluted in Tyrodes buffer+probenecid (145 mM NaCl, 2.5 mM KCl, 10 mM HEPES, 10 mM D-glucose, 1.2 mM MgCl2, 1.5 mM CaCl2, 2.5 mM probenecid, pH adjusted to 7.40 with NaOH 1.0 M)). Cells are incubated for 45 min at 37° C. The loading buffer is removed and the cells are washed as above, and 90 μl of Tyrodes buffer+probenecid is added to each well. 10 μl of test compound, diluted to the required concentration in Tyrodes buffer+probenecid (or 10 μl Tyrodes buffer+probenecid as a control) is added to each well and the plate is incubated for 30 min at 37° C., 5% CO2. The plates are then placed into a FLIPR™ (Molecular Devices, UK) to monitor cell fluorescence (λex=488 nm, λEM=540 nm) in the manner described in Sullivan et al., (In: Lambert DG (ed.), Calcium Signaling Protocols, New Jersey: Humana Press, 1999, 125-136) before and after the addition of 50 μl histamine over a concentration range of 1 mM-0.1 nM. The resultant concentration response curves are analysed by non-linear regression using a standard four parameter logistic equation to determine the histamine EC50, the concentration of histamine required to produce a response of 50% of the maximum response to histamine. The antagonist pA2 is calculated using the following standard equation: pA2=log(DR-1)- log[B] where DR=dose ratio, defined as EC50antagonist-treated/EC50control and [B]=concentration of antagonist.

[2] = target: T1, human H1 receptor; test: Histamine H1 functional antagonist assay: antagonist duration after washout; assay type: cell-based; conditions: at one or more time points
Experimental: as §1, §2
To determine the antagonist duration, cells are cultured overnight in non-coated black-walled clear bottom 96-well tissue culture plates, are washed with PBS and are incubated with a concentration of antagonist chosen to give an approximate DR in the range 30-300. Following the 30 min antagonist incubation period, the cells are washed two or three times with 200 μl of PBS and then 100 μl Tyrodes buffer is added to each well to initiate antagonist dissociation. Following incubation for predetermined times, typically 30-270 min at 37° C., the cells are then washed again with 200 μl PBS and are incubated with 100 μl Tyrodes buffer containing Brilliant Black, probenecid and Fluo-4 for 45 min at 37° C., as described above. After this period, the cells are challenged with histamine in the FLIPR™ as described above. The dose ratio at each time point is used to determine the fractional H1 receptor occupancy by the following equation: fractional receptor occupancy=(DR-1)/DR. The decrease in receptor occupancy over time approximates to a straight line and is analysed by linear regression. The slope of this straight line fit is used as an index of the dissociation rate of the antagonist. The dose ratios for antagonist treated cells and for antagonist treated and washed cells at each time point are used to calculate a relative dose ratio (rel DR) which is also used as an index of antagonist duration. Antagonists with long duration of action produce rel DR values close to 1, and antagonists with short duration of action produce rel DR values that approaches the dose ratio value obtained for antagonist treatment alone.

[3] = CNS penetration (intravenous bolus or infusion at steady state, blood and brain levels); assay type: in vivo, rat; conditions: male CD Sprague Dawley rats
Experimental: (i) CNS penetration by bolus administration
Compounds are dosed intravenously at a nominal dose level of 1 mg/kg to male CD Sprague Dawley rats. Compounds are formulated in 5% DMSO/45% PEG200/50% water. Blood samples are taken under terminal anaesthesia with isoflurane at 5 min post-dose and the brains are also removed for assessment of brain penetration. Blood samples are taken directly into heparinised tubes. Blood samples are prepared for analysis using protein precipitation and brain samples are prepared using extraction of drug from brain by homogenisation and subsequent protein precipitation. The concentration of parent drug in blood and brain extracts is determined by quantitative LC-MS/MS analysis using compound-specific mass transitions.
(ii) CNS penetration following intravenous infusion at steady state
A loading dose of the compounds is given to male CD Sprague Dawley rats at a nominal dose level of 0.4 mg/kg. The compounds are then infused intravenously for 4 h at a nominal dose level of 0.1 mg/kg/h. Compounds are formulated in 2% DMSO/30% PEG200/68% water. Serial or terminal blood samples are taken at 0.5, 1.5, 2.5, 3, 3.5 and 4 h post dose. The final blood sample is collected under terminal anaesthesia with isoflurane and the brains are also removed for assessment of brain penetration. Blood samples are taken directly into heparinised tubes. Blood samples are prepared for analysis using protein precipitation and brain samples are prepared using extraction of drug from brain by homogenisation and subsequent protein precipitation. The concentration of parent drug in blood and brain extracts is determined by quantitative LC-MS/MS analysis using compound-specific mass transitions.

[4] = target: T1, human H1 receptor; test: Histamine H1 functional antagonist assay (FLIPR): determination of functional pKi values; assay type: cell-based; conditions: CHO cells expressing human H1, histamine at EC80; read-out: average pKi (pKb) at H1 (converted)
Description: H1 receptor cell line generation and FLIPR assay protocol
1. Generation of histamine H1 cell line
as §1
Histamine H1 functional antagonist assay: Determination of functional pKi values […]
10 μl of test compound, diluted to the required concentration in Tyrodes buffer+probenecid (or 10 μl Tyrodes buffer+probenecid as a control) is added to each well and the plate is incubated for 30 min at 37° C., 5% CO2. The plates are then placed into a FLIPR™ (Molecular Devices, UK) to monitor cell fluorescence (λex=488 nm, αEM=540 nm) in the manner described in Sullivan et al., (In: Lambert DG (ed.), Calcium Signaling Protocols, New Jersey: Humana Press, 1999, 125-136) before and after the addition of 10 μl histamine at a concentration that results in the final assay concentration of histamine being EC80.
Functional antagonism is indicated by a suppression of histamine induced increase in fluorescence, as measured by the FLIPR™ system (Molecular Devices). By means of concentration effect curves, functional affinities are determined using standard pharmacological mathematical analysis.

[5] = CHO cells expressing human H1, histamine concentration response curves, read-out: average pA2 values at H1 (converted)

T1 sequence (P35367 whole entry): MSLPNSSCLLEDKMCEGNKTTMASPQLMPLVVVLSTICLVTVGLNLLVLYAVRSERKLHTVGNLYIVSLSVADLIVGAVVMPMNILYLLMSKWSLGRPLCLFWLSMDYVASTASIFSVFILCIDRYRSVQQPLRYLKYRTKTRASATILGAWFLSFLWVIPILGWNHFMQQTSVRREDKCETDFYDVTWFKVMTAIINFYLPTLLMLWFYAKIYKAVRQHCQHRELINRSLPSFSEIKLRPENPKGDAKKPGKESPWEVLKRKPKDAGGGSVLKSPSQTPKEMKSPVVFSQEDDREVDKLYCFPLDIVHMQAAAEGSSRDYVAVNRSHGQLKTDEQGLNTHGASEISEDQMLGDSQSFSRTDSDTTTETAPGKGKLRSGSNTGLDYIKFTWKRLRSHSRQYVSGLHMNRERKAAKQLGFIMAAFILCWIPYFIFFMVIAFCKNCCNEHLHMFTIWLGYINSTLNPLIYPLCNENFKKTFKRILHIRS

Structure (SMILES)	Kb [1, 5]	duration of action compared with azelastine in the histamine H1 functional antagonist assay [2]	further results
CN(CCCCc1ccc(OCCCN2CCCCCC2)cc1)CCn1nc(Cc2ccc(Cl)cc2)c2ccccc2c1=O [Example 3, 4-[(4-Chlorophenyl)methyl]-2-{2-[[4-(4-{[3-(hexahydro-1H-azepin-1-yl)propyl]oxy}phenyl)butyl](methyl)amino]ethyl}-1(2H)-phthalazinone]	< 10 nM	–	–
O=c1c2ccccc2c(Cc2ccc(Cl)cc2)nn1C[C@H]1CCCN1CCCCCc1ccc(OCCCN2CCCCCC2)cc1 [Example 6, 4-[(4-Chlorophenyl)methyl]-2-({(2R)-1-[5-(4-{[3-(hexahydro-1H-azepin-1-yl)propyl]oxy}phenyl)pentyl]-2-pyrrolidinyl}methyl)-1(2H)-phthalazinone]	< 1 nM	–	–
COc1ccc(Cc2nn(C[C@H]3CCCN3CCCCc3ccc(OCCCN4CCCCCC4)cc3)c(=O)c3ccccc23)cc1 [Example 7, 2-({(2R)-1-[4-(4-{[3-(Hexahydro-1H-azepin-1-yl)propyl]oxy}phenyl)butyl]-2-pyrrolidinyl}methyl)-4-{[4-(methyloxy)phenyl]methyl}-1(2H)-phthalazinone diformate]	–	longer duration of action than azelastine	Kb [1]: < 1 nM; CNS penetration compared with azelastine [3]: lower CNS penetration than azelastine; Ki [4]: < 10 nM
O=c1c2ccccc2c(Cc2ccc(O)cc2)nn1C[C@H]1CCCN1CCCCc1ccc(OCCCN2CCCCCC2)cc1 [Example 8, 2-({(2R)-1-[4-(4-{[3-(Hexahydro-1H-azepin-1-yl)propyl]oxy}phenyl)butyl]-2-pyrrolidinyl}methyl)-4-[(4-hydroxyphenyl)methyl]-1(2H)-phthalazinone]	< 10 nM	longer duration of action than azelastine	–
O=c1c2ccccc2c(Cc2ccc(F)cc2)nn1C[C@H]1CCCN1CCCCc1ccc(OCCCN2CCCCCC2)cc1 [Example 9, 4-[(4-Fluorophenyl)methyl]-2-({(2R)-1-[4-(4-{[3-(hexahydro-1H-azepin-1-yl)propyl]oxy}phenyl)butyl]-2-pyrrolidinyl}methyl)-1(2H)-phthalazinone]	< 1 nM	longer duration of action than azelastine	–
O=c1c2ccccc2c(Cc2ccc(Cl)cc2)nn1C1CCCN(CCc2ccc(OCCCN3CCCCCC3)cc2)CC1 (stereo not shown) [Example 11, 4-[(4-Chlorophenyl)methyl]-2-{1-[2-(4-{[3-(hexahydro-1H-azepin-1-yl)propyl]oxy}phenyl)ethyl]hexahydro-1H-azepin-4-yl}-1(2H)-phthalazinone]	< 10 nM	–	–
O=c1c2ccccc2c(Cc2ccc(Cl)cc2)nn1C1CCCN(CCCc2ccc(OCCCN3CCCCCC3)cc2)CC1 (stereo not shown) [Example 12, 4-[(4-Chlorophenyl)methyl]-2-{1-[3-(4-{[3-(hexahydro-1H-azepin-1-yl)propyl]oxy}phenyl)propyl]hexahydro-1H-azepin-4-yl}-1(2H)-phthalazinone]	< 10 nM	–	–
O=c1c2ccccc2c(Cc2ccc(Cl)cc2)nn1C[C@H]1CCCN1CCCOc1ccc2c(c1)CCN(C1CCC1)CC2 [Example 15, 4-[(4-Chlorophenyl)methyl]-2-[((2R)-1-{3-[(3-cyclobutyl-2,3,4,5-tetrahydro-1H-3-benzazepin-7-yl)oxy]propyl}-2-pyrrolidinyl)methyl]-1(2H)-phthalazinone]	< 10 nM	longer duration of action than azelastine	–
O=c1c2ccccc2c(Cc2ccc(Cl)cc2)nn1C1CCCN(CCCOc2ccc3c(c2)CCN(C2CCC2)CC3)CC1 (stereo not shown) [Example 16, 4-[(4-Chlorophenyl)methyl]-2-(1-{3-[(3-cyclobutyl-2,3,4,5-tetrahydro-1H-3-benzazepin-7-yl)oxy]propyl}hexahydro-1H-azepin-4-yl)-1(2H)-phthalazinone formate salt]	–	–	CNS penetration compared with azelastine [3]: comparable CNS penetration to azelastine
O=C(NCCN1CCCC(n2nc(Cc3ccc(Cl)cc3)c3ccccc3c2=O)CC1)c1ccc2c(c1)CCN(C1CCC1)CC2 (stereo not shown) [Example 18, N-(2-{4-[4-[(4-Chlorophenyl)methyl]-1-oxo-2(1H)-phthalazinyl]hexahydro-1H-azepin-1-yl}ethyl)-3-cyclobutyl-2,3,4,5-tetrahydro-1H-3-benzazepine-7-carboxamide diformate salt]	–	longer duration of action than azelastine	Kb [1]: < 10 nM
O=c1c2ccncc2c(Cc2ccc(Cl)cc2)nn1C[C@H]1CCCN1CCCCc1ccc(OCCCN2CCCCCC2)cc1 [Example 23, 4-[(4-Chlorophenyl)methyl]-2-({(2R)-1-[4-(4-{[3-(hexahydro-1H-azepin-1-yl)propyl]oxy}phenyl)butyl]-2-pyrrolidinyl}methyl)pyrido[3,4-d]pyridazin-1(2H)-one]	–	longer duration of action than azelastine	Kb [1]: < 1 nM

Reference: patent publication US20080039444A1, “COMPOUNDS” (GLAXO GROUP LIMITED, priority 2006, published 2008)
